Reference: patent US9828396B2, “Alkyne compounds for treatment of complement mediated disorders” (Achillion Pharmaceuticals, Inc., priority 2014, dated 2017)
Blank lines part the entries; values can stand above or below the compound they belong to.

Target: Human factor D (Homo sapiens (Human), UniProt P00746)
Experiment: Human Factor D Assay
Assay type: biochemical
Conditions: Human factor D 80 nM, substrate Z-L-Lys-SBzl, assay of Example 12
Experimental: Example 12. Human Factor D Assay
Human factor D (purified from human serum, Complement Technology, Inc.) at 80 nM final concentration is incubated with test compound at various concentrations for 5 minutes at room temperature in 50 mM Tris, 1M NaCl, pH 7.5. A synthetic substrate Z-L-Lys-SBzl and DTNB (Ellman's reagent) are added to final concentrations of 100 μM each. The increase in color is recorded at OD405 nm in a microplate in kinetic mode over 30 minutes with 30 second time points in a spectrofluorimeter. IC50 values are calculated by non-linear regression from the percentage of inhibition of complement factor D activity as a function of test compound concentration.

Sequence of Human factor D (P00746 26-253): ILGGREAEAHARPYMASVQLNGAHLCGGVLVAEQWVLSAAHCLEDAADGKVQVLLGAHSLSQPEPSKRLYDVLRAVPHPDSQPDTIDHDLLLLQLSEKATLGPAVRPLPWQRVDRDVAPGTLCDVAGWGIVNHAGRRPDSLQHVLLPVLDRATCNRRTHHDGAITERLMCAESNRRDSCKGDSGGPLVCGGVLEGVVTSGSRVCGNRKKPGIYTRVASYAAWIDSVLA

SMILES: NC(=O)c1nn(CC(=O)N2C[C@H](F)C[C@H]2C(=O)Nc2cccc(-c3ncccc3Cl)c2F)c2ccc(C#Cc3ncccn3)cc12 [Compound 28, 1-(2-((2S,4R)-2-(3-(3-chloropyridin-2-yl)-2-fluorophenylcarbamoyl)-4-fluoropyrrolidin-1-yl)-2-oxoethyl)-5-(pyrimidin-2-ylethynyl)-1H-indazole-3-carboxamide]
IC50: < 1 µM

SMILES: NC(=O)c1nn(CC(=O)N2C[C@H](F)C[C@H]2C(=O)NCc2cccc(Cl)c2F)c2ccc(C#Cc3cn[nH]c3)cc12 [Compound 29, 5-((1H-pyrazol-4-yl)ethynyl)-1-(2-((2S,4R)-2-(3-chloro-2-fluorobenzylcarbamoyl)-4-fluoropyrrolidin-1-yl)-2-oxoethyl)-1H-indazole-3-carboxamide]
IC50: < 1 µM

SMILES: NC(=O)c1nn(CC(=O)N2C[C@H](F)C[C@H]2C(=O)Nc2cccc(-c3cccc(Cl)c3)c2F)c2ccc(C#Cc3ncccn3)cc12 [Compound 30, 1-(2-((2S,4R)-2-(3′-chloro-2-fluorobiphenyl-3-ylcarbamoyl)-4-fluoropyrrolidin-1-yl)-2-oxoethyl)-5-(pyrimidin-2-ylethynyl)-1H-indazole-3-carboxamide]
IC50: < 1 µM

SMILES: NC(=O)c1nn(CC(=O)N2C[C@H](F)C[C@H]2C(=O)N2CCc3c([nH]c4ccccc34)C2)c2ccc(C#Cc3ncccn3)cc12 [Compound 31, 1-(2-((2S,4R)-4-fluoro-2-(2,3,4,9-tetrahydro-1H-pyrido[3,4-b]indole-2-carbonyl)pyrrolidin-1-yl)-2-oxoethyl)-5-(pyrimidin-2-ylethynyl)-1H-indazole-3-carboxamide]
IC50: > 10 µM

IC50: < 1 µM
SMILES: NC(=O)c1nn(CC(=O)N2C[C@H](F)C[C@H]2C(=O)NCc2cccc(Cl)c2F)c2cnc(C#Cc3ncccn3)cc12 [Compound 32, 1-(2-((2S,4R)-2-(3-chloro-2-fluorobenzylcarbamoyl)-4-fluoropyrrolidin-1-yl)-2-oxoethyl)-5-(pyrimidin-2-ylethynyl)-1H-pyrazolo[3,4-c]pyridine-3-carboxamide]

SMILES: NC(=O)c1nn(CC(=O)N2C[C@H](F)C[C@H]2C(=O)Nc2cccc(C(F)(F)F)n2)c2ccc(C#Cc3ncccn3)cc12 [Compound 33, 1-(2-((2S,4R)-4-fluoro-2-(6-(trifluoromethyl)pyridin-2-ylcarbamoyl)pyrrolidin-1-yl)-2-oxoethyl)-5-(pyrimidin-2-ylethynyl)-1H-indazole-3-carboxamide]
IC50: < 1 µM

SMILES: NC(=O)c1nn(CC(=O)N2[C@@H]3C[C@@H]3C[C@H]2C(=O)Nc2cccc(OC(F)(F)F)c2F)c2ccc(C#Cc3ncccn3)cc12 [Compound 34, 1-(2-((1R,3S,5R)-3-(2-fluoro-3-(trifluoromethoxy)phenyl-carbamoyl)-2-azabicyclo[3.1.0]hexan-2-yl)-2-oxoethyl)-5-(pyrimidin-2-ylethynyl)-1H-indazole-3-carboxamide]
IC50: < 1 µM

SMILES: NC(=O)c1nn(CC(=O)N2C[C@H](F)C[C@H]2C(=O)NCc2cccc(Cl)c2F)c2ccc(C#Cc3ccc(F)cn3)cc12 [Compound 35, 1-(2-((2S,4R)-2-(3-chloro-2-fluorobenzylcarbamoyl)-4-fluoropyrrolidin-1-yl)-2-oxoethyl)-5-((5-fluoropyridin-2-yl)ethynyl)-1H-indazole-3-carboxamide]
IC50: < 1 µM

SMILES: NC(=O)c1nn(CC(=O)N2C[C@H](F)C[C@H]2C(=O)NCc2cccc(Cl)c2F)c2ccc(C#Cc3cccc(N)n3)cc12 [Compound 36, 5-((6-aminopyridin-2-yl)ethynyl)-1-(2-((2S,4R)-2-(3-chloro-2-fluorobenzylcarbamoyl)-4-fluoropyrrolidin-1-yl)-2-oxoethyl)-1H-indazole-3-carboxamide]
IC50: < 1 µM

SMILES: NC(=O)c1nn(CC(=O)N2C[C@H](F)C[C@H]2C(=O)NCc2cccc(Cl)c2F)c2ccc(C#Cc3cccc(F)n3)cc12 [Compound 37, 1-(2-((2S,4R)-2-(3-chloro-2-fluorobenzylcarbamoyl)-4-fluoropyrrolidin-1-yl)-2-oxoethyl)-5-((6-fluoropyridin-2-yl)ethynyl)-1H-indazole-3-carboxamide]
IC50: < 1 µM

SMILES: NC(=O)c1nn(CC(=O)N2C[C@H](F)C[C@H]2C(=O)Nc2cccc(OC(F)(F)F)c2F)c2ccc(C#Cc3ncccn3)cc12 [Compound 38, 1-(2-((2S,4R)-4-fluoro-2-(2-fluoro-3-(trifluoromethoxy)phenyl-carbamoyl)pyrrolidin-1-yl)-2-oxoethyl)-5-(pyrimidin-2-ylethynyl)-1H-indazole-3-carboxamide]
IC50: < 1 µM

SMILES: NC(=O)c1nn(CC(=O)N2C[C@H](F)C[C@H]2C(=O)Nc2cccc(Br)n2)c2ccc(C#Cc3ncccn3)cc12 [Compound 39, 1-(2-((2S,4R)-2-(6-bromopyridin-2-ylcarbamoyl)-4-fluoropyrrolidin-1-yl)-2-oxoethyl)-5-(pyrimidin-2-ylethynyl)-1H-indazole-3-carboxamide]
IC50: < 1 µM

SMILES: NC(=O)c1nn(CC(=O)N2C[C@H](F)C[C@H]2C(=O)NCc2cccc(Cl)c2F)c2ccc(C#Cc3ncc(F)cn3)cc12 [Compound 40, 1-(2-((2S,4R)-2-(3-chloro-2-fluorobenzylcarbamoyl)-4-fluoropyrrolidin-1-yl)-2-oxoethyl)-5-((5-fluoropyrimidin-2-yl)ethynyl)-1H-indazole-3-carboxamide]
IC50: < 1 µM

SMILES: NC(=O)c1nn(CC(=O)N2[C@@H]3C[C@@H]3C[C@H]2C(=O)Nc2cccc(Br)n2)c2ccc(C#Cc3ncccn3)cc12 [Compound 41, 1-(2-((1R,3S,5R)-3-(6-bromopyridin-2-ylcarbamoyl)-2-azabicyclo[3.1.0]hexan-2-yl)-2-oxoethyl)-5-(pyrimidin-2-ylethynyl)-1H-indazole-3-carboxamide]
IC50: < 1 µM

SMILES: CC(=O)c1cn(CC(=O)N2C[C@H](F)C[C@H]2C(=O)Nc2cccc(Br)n2)c2ccc(C#Cc3ncccn3)cc12 [Compound 42, (2S,4R)-1-(2-(3-acetyl-5-(pyrimidin-2-ylethynyl)-1H-indol-1-yl)acetyl)-N-(6-bromopyridin-2-yl)-4-fluoropyrrolidine-2-carboxamide]
IC50: < 1 µM

SMILES: NC(=O)c1nn(CC(=O)N2[C@@H]3C[C@@H]3C[C@H]2C(=O)Nc2cccc(Br)n2)c2ccc(C#Cc3ncc(F)cn3)cc12 [Compound 43, 1-(2-((1R,3S,5R)-3-(6-bromopyridin-2-ylcarbamoyl)-2-azabicyclo[3.1.0]hexan-2-yl)-2-oxoethyl)-5-((5-fluoropyrimidin-2-yl)ethynyl)-1H-indazole-3-carboxamide]
IC50: < 1 µM

SMILES: CC1(C)CCCC(NC(=O)[C@@H]2C[C@@H](F)CN2C(=O)Cn2nc(C(N)=O)c3cc(C#Cc4ncccn4)ccc32)C1 (stereo partly drawn) [Compound 44, 1-(2-((2S,4R)-2-(3,3-dimethylcyclohexylcarbamoyl)-4-fluoropyrrolidin-1-yl)-2-oxoethyl)-5-(pyrimidin-2-ylethynyl)-1H-indazole-3-carboxamide]
IC50: < 1 µM

SMILES: CC(C)=C(F)CNC(=O)[C@@H]1C[C@@H](F)CN1C(=O)Cn1nc(C(N)=O)c2cc(C#Cc3ncccn3)ccc21 [Compound 45, 1-(2-((2S,4R)-4-fluoro-2-(2-fluoro-3-methylbut-2-enylcarbamoyl)pyrrolidin-1-yl)-2-oxoethyl)-5-(pyrimidin-2-ylethynyl)-1H-indazole-3-carboxamide]
IC50: < 1 µM

SMILES: NC(=O)c1nn(CC(=O)N2C[C@H](F)C[C@H]2C(=O)Nc2cccc(Br)n2)c2ccc(C#Cc3ncc(F)cn3)cc12 [Compound 46, 1-(2-((2S,4R)-2-(6-bromopyridin-2-ylcarbamoyl)-4-fluoropyrrolidin-1-yl)-2-oxoethyl)-5-((5-fluoropyrimidin-2-yl)ethynyl)-1H-indazole-3-carboxamide]
IC50: < 1 µM

SMILES: NC(=O)c1nn(CC(=O)N2C[C@H](F)C[C@H]2C(=O)Nc2cccc(-c3ccccc3Cl)n2)c2ccc(C#Cc3ncccn3)cc12 [Compound 47, 1-(2-((2S,4R)-2-(6-(2-chlorophenyl)pyridin-2-ylcarbamoyl)-4-fluoropyrrolidin-1-yl)-2-oxoethyl)-5-(pyrimidin-2-ylethynyl)-1H-indazole-3-carboxamide]
IC50: < 1 µM

SMILES: NC(=O)c1nn(CC(=O)N2C[C@H](F)C[C@H]2C(=O)Nc2cccc(Br)n2)c2ccc(C#Cc3ccccn3)cc12 [Compound 48, 1-(2-((2S,4R)-2-(6-bromopyridin-2-ylcarbamoyl)-4-fluoropyrrolidin-1-yl)-2-oxoethyl)-5-(pyridin-2-ylethynyl)-1H-indazole-3-carboxamide]
IC50: < 1 µM

SMILES: NC(=O)c1nn(CC(=O)N2C[C@H](F)C[C@H]2C(=O)Nc2cccc(-c3ccc(F)cc3Cl)c2F)c2ccc(C#Cc3ncccn3)cc12 [Compound 49, 1-(2-((2S,4R)-2-(2′-chloro-2,4′-difluorobiphenyl-3-ylcarbamoyl)-4-fluoropyrrolidin-1-yl)-2-oxoethyl)-5-(pyrimidin-2-ylethynyl)-1H-indazole-3-carboxamide]
IC50: < 1 µM

SMILES: NC(=O)c1nn(CC(=O)N2C[C@H](F)C[C@H]2C(=O)Nc2cccc(-c3cn[nH]c3)n2)c2ccc(C#Cc3ncccn3)cc12 [Compound 50, 1-(2-((2S,4R)-2-(6-(1H-pyrazol-4-yl)pyridin-2-ylcarbamoyl)-4-fluoropyrrolidin-1-yl)-2-oxoethyl)-5-(pyrimidin-2-ylethynyl)-1H-indazole-3-carboxamide]
IC50: < 1 µM

SMILES: NC(=O)c1nn(CC(=O)N2[C@@H]3CC(F)(F)[C@@H]3C[C@H]2C(=O)NCc2cccc(Cl)c2F)c2ccc(C#Cc3ncccn3)cc12 [Compound 51, 1-(2-((1R,3S,5R)-3-(3-chloro-2-fluorobenzylcarbamoyl)-6,6-difluoro-2-azabicyclo[3.2.0]heptan-2-yl)-2-oxoethyl)-5-(pyrimidin-2-ylethynyl)-1H-indazole-3-carboxamide]
IC50: 1 to 10 µM
